Converted amounts (≈) assume the structure as drawn. Like-named read-outs stand apart in the source and are kept apart here. Some results are limits rather than exact numbers.

A word on the Kd: it is the free concentration of one partner at which half of the binding sites on the other are occupied at equilibrium, for simple one-to-one binding. Read a high Kd as a looser complex. By IC50 is commonly meant the concentration that gives 50% inhibition.

The target in data set [1] is T1, MtbAPSR (Mycobacterium tuberculosis, UniProt P9WIK3). In words: biochemical. Also on record: species or system M. tuberculosis.
T1 sequence (P9WIK3 whole entry): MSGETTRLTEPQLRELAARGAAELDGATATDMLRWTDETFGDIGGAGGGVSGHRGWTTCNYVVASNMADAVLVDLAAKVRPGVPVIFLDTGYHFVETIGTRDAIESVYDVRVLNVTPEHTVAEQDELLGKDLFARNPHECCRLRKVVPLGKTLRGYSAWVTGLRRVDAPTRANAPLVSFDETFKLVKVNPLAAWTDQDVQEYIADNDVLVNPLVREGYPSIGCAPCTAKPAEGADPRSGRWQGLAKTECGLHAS
The next data set can be described thus: LUM assay counterscreen. It counts as biochemical. Particulars: LOPAC pilot screen, dose-response. (In general: Counterscreens check selectivity or assay interference.)
Data set [2] has as its target T1, MtbAPSR. Put plainly: biochemical. It counts as binding, M. tuberculosis.
The test system of a further data set is VERO cells. In words: Cytotoxicity in VERO cells. The class given is cell-based.
Data set [3] deals with Non replicating WT Mtb H37Rv. In words: Bactericidal activity against nonreplicating. It counts as cell-based. The settings on record: Mycobacterium tuberculosis.
Data set [4] deals with Non replicating Msm mc2:155 ΔcysH. The class given is cell-based, Mycobacterium smegmatis. Particulars: 2 mM methionine; Alamar Blue assay. Background: Alamar Blue is a resazurin reagent that responds to reducing activity.
Data set [5] in a line: HRP-PR H2O2 detection counterscreen for redox-cycling compounds. The class given is biochemical. The settings on record: 0.8 mM DTT.
In the next data set the test system is RecA. Particulars: qRT-PCR, normalized to housekeeping gene SigA. (In general: Real-time PCR tracks product formation cycle by cycle.)

In the case of `CSc1nc(N)c2ncn([C@@H]3O[C@H](COP(=O)(O)OP(=O)(O)O)[C@@H](O)[C@H]3O)c2n1.[Na].[Na].[Na]` [2-Thiomethyladenoside diphosphate trisodium, reference compound], the “activity in LUM assay” value at MtbAPSR [1] is listed as “active”. In “LUM assay counterscreen”, the “activity in LUM counterscreen” value is given as “active”.

For `Cc1c2ccncc2c(C)c2c1[nH]c1ccccc12` [Compound 5, ellipticine], the Kd at MtbAPSR [2] was found to be 12 µM. In addition, in the data set on VERO cells, the “lethal concentration (LC90) in VERO cells” value worked out at 63 µM. The “cytotoxicity fold lower compared to bactericidal activity against nonreplicating Mtb” value with VERO cells (VERO LC90 vs MBC) is on record as ~ 5 fold. The IC50 came out at 4.2 µM against MtbAPSR [1] (LUM Assay, IC50, dose-response LUM assay, Table 1) and 11.1 µM on MtbAPSR [1] (apparent IC50 in LUM assay, LOPAC pilot screen hit, dose-response, 384-well). Moreover, the MBC in data set [3] (read-out: Non replicating WT Mtb H37Rv, (+) Met) came to 12.5 µM (≈ 3.08 µg/mL); in data set [3] (read-out: Non replicating WT Mtb H37Rv, (−) Met) it was 12.5 µM (≈ 3.08 µg/mL). Further, in data set [4], the “Non replicating Msm mc2:155; MBC, ΔcysH” value was above 100 µM. Besides, the “activity in LUM counterscreen” value in “LUM assay counterscreen” was “inactive”.

As for `O=C1C(SCCO)=C(SCCO)C(=O)c2ccccc21` [NSC 95397], in data set [5], the “generation of H2O2 in HRP-PR assay” value was “showed generation of H2O2”.

As to `CO[C@@]12[C@H](COC(N)=O)C3=C(C(=O)C(C)=C(N)C3=O)N1C[C@@H]1N[C@@H]12` [mitomycin C], the “upregulation of RecA” value in the data set with RecA was “significant upregulation”.

As for `Cl.N[C@@H](CCl)C(=O)O` [β-Chloro-L-alanine hydrochloride, reference compound], the “activity in LUM assay” value at MtbAPSR [1] (LOPAC pilot screen, dose-response) is reported as “no activity”. Further, the “activity in LUM counterscreen” value in the data set “LUM assay counterscreen” is listed as “no activity”.

The values above are taken from paper PMC4729198 (ACS chemical biology, 2015).
